According to US20150353495A1 (PORTOLA PHARMACEUTICALS, INC., priority 2010, published 2015):

Experiments:
Assay type in all cases: biochemical
[1] = biological target: T1, JAK1 (Homo sapiens, UniProt P23458); assay: Z'-LYTE kinase assay JAK1
T1 construct: 5 μl of catalytic domain recombinant Kinase enzyme+Tyr peptide substrate (Invitrogen, CA); purchased Invitrogen
How it was run: (§1)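 Catalytic-domain recombinant kinase was incubated with Tyr6 FRET peptide, ATP and compound (1% DMSO final) for 1 h at room temperature. Protease development followed for 1 h, cleaving only non-phosphorylated peptide. Inhibition of phosphorylation was read as coumarin/fluorescein FRET fluorescence.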

[2] = biological target: T2, JAK2 (Homo sapiens, UniProt O60674); assay: Z'-LYTE kinase assay JAK2
T2 construct: 5 μl of catalytic domain recombinant Kinase enzyme+Tyr peptide substrate (Invitrogen, CA); purchased Invitrogen
How it was run: as §1

[3] = biological target: T3, JAK3 (Homo sapiens, UniProt P52333); assay: Z'-LYTE kinase assay JAK3
T3 construct: 5 μl of catalytic domain recombinant Kinase enzyme+Tyr peptide substrate (Invitrogen, CA); purchased Invitrogen
How it was run: as §1

T2 sequence (O60674 849-1124 limits assumed): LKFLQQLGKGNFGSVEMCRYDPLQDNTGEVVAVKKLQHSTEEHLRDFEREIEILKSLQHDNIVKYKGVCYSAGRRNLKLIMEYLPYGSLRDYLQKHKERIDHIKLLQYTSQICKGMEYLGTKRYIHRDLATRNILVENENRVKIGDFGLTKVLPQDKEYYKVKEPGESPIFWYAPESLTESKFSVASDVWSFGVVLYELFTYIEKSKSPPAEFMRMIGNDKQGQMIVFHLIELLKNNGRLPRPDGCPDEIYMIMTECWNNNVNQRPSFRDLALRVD
T3 sequence (P52333 822-1111 limits assumed): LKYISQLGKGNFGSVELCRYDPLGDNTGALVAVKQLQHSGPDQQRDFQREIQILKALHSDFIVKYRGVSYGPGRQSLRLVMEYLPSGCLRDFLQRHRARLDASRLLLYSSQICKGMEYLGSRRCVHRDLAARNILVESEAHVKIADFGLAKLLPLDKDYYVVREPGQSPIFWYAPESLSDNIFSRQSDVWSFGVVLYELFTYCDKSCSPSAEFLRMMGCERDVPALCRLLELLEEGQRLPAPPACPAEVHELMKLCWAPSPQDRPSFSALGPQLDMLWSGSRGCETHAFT
T1 sequence (P23458 875-1153 limits assumed): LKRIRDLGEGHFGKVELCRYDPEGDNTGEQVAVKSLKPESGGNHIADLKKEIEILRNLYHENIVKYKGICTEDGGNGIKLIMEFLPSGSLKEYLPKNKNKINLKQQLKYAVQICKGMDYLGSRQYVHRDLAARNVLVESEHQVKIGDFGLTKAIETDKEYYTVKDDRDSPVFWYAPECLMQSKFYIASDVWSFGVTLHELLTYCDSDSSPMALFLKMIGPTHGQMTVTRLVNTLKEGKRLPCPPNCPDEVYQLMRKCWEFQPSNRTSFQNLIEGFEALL

Compound	IC50 [1] [µM]	IC50 [2] [µM]	IC50 [3] [µM]
COC(=O)N(C)c1ccc(Nc2cc(NCc3cccc4[nH]ccc34)c(C(N)=O)cn2)cc1 [Example 474, methyl 4-(4-((1H-indol-4-yl)methylamino)-5-carbamoylpyridin-2-ylamino)phenyl(methyl)carbamate]	0.01 to 0.1	0.01 to 0.1	0.001 to 0.01
CN(C)C(=O)c1ccc(Nc2cc(NCc3cccc4ccn(C)c34)c(C(N)=O)cn2)cc1 [Example 318, 6-(4-(dimethylcarbamoyl)phenylamino)-4-((1-methyl-1H-indol-7-yl)methylamino)nicotinamide]	> 1	0.1 to 1	0.01 to 0.1
COc1ccc(Nc2cc(NCc3cncc(F)c3)c(C(N)=O)cn2)cc1 [Example 296, 4-((5-fluoropyridin-3-yl)methylamino)-6-(4-methoxyphenylamino)nicotinamide]	0.1 to 1	0.1 to 1	0.01 to 0.1
COCC(=O)N1CC(c2ccc(Nc3cc(NCc4cccc(F)n4)c(C(N)=O)cn3)cc2)C1 [Example 493, 4-((6-fluoropyridin-2-yl)methylamino)-6-(4-(1-(2-methoxyacetyl)azetidin-3-yl)phenylamino)nicotinamide]	0.1 to 1	0.1 to 1	0.01 to 0.1
COc1cc(Nc2cc(NCc3ccccc3)c(C(N)=O)cn2)cc(OC)c1OC [Example 280, 4-(benzylamino)-6-(3,4,5-trimethoxyphenylamino)nicotinamide]	> 1	0.1 to 1	0.01 to 0.1
NC(=O)c1cnc(Nc2ccc(CC(=O)N3CCCC3)cc2)cc1NCc1ccccc1 [Example 329, 4-(benzylamino)-6-(4-(2-oxo-2-(pyrrolidin-1-yl)ethyl)phenylamino)nicotinamide]	0.1 to 1	0.1 to 1	0.001 to 0.01
CN(C)C(=O)c1ccc(Nc2cc(NCc3ccncn3)c(C(N)=O)cn2)cc1 [Example 299, 6-(4-(dimethylcarbamoyl)phenylamino)-4-(pyrimidin-4-ylmethylamino)nicotinamide]	> 1	> 1	> 1
CN(C)C(=O)c1ccc(Nc2cc(NCc3cncc(F)c3)c(C(N)=O)cn2)cc1 [Example 312, 6-(4-(dimethylcarbamoyl)phenylamino)-4-((5-fluoropyridin-3-yl)methylamino)nicotinamide]	0.1 to 1	0.1 to 1	0.001 to 0.01
COC[C@@H](Nc1cc(Nc2ccc(C(=O)N3CCC3)cc2)ncc1C(N)=O)c1ccccc1 [Example 264, (S)-6-(4-(azetidine-1-carbonyl)phenylamino)-4-(2-methoxy-1-phenylethylamino)nicotinamide]	0.1 to 1	0.1 to 1	0.01 to 0.1
NC(=O)c1cnc(Nc2ccc(N3CCC(F)(F)CC3)cc2)cc1NC1(c2ccccc2)CC1 [Example 131, 6-(4-(4,4-difluoropiperidin-1-yl)phenylamino)-4-(1-phenylcyclopropylamino)nicotinamide]	> 1	> 1	0.1 to 1
NC(=O)c1cnc(Nc2ccc(C3CCN(CC(F)F)CC3)cc2)cc1NCc1cccc(F)c1F [Example 216, 4-(2,3-difluorobenzylamino)-6-(4-(1-(2,2-difluoroethyl)piperidin-4-yl)phenylamino)nicotinamide]	> 1	> 1	0.01 to 0.1
CN(C)C(=O)c1ccc(Nc2cc(NCc3cccc(-c4cccnc4)c3)c(C(N)=O)cn2)cc1 [Example 414, 6-(4-(dimethylcarbamoyl)phenylamino)-4-(3-(pyridine-3-yl)benzylamino)nicotinamide]	0.1 to 1	0.1 to 1	0.001 to 0.01
NC(=O)c1cnc(Nc2ccc3ccncc3c2)cc1NCc1ccccc1 [Example 89, 4-(benzylamino)-6-(isoquinolin-7-ylamino)nicotinamide]	> 1	> 1	0.1 to 1
Cc1cc(Nc2cc(NCc3cccc4[nH]ccc34)c(C(N)=O)cn2)ccc1C(=O)N1CCOCC1 [Example 462, 4-((1H-indol-4-yl)methylamino)-6-(3-methyl-4-(morpholine-4-carbonyl)phenylamino)nicotinamide]	0.001 to 0.01	0.001 to 0.01	< 0.001
NC(=O)c1cnc(Nc2cccc(N3CCOCC3)c2)cc1NC1(c2ccccc2)CC1 [Example 128, 6-(3-morpholinophenylamino)-4-(1-phenylcyclopropylamino)-nicotinamide]	> 1	> 1	0.01 to 0.1
CN(C(=O)C1CC1)c1ccc(Nc2cc(NCc3cccc4cc[nH]c34)c(C(N)=O)cn2)cc1 [Example 478, 4-((1H-indol-7-yl)methylamino)-6-(4-(N-methylcyclopropanecarboxamido)phenylamino)nicotinamide]	> 1	0.1 to 1	0.1 to 1
CC(=O)N1CCC[C@H](CNc2cc(Nc3ccc(F)c(C(=O)N4CCC4)c3)ncc2C(N)=O)C1 [Example 444, (R)-4-((1-acetylpiperidin-3-yl)methylamino)-6-(3-(azetidine-1-carbonyl)-4-fluorophenylamino)nicotinamide]	> 1	> 1	0.1 to 1
CN(C)C(=O)NCc1ccc(Nc2cc(NCc3cccc4ccsc34)c(C(N)=O)cn2)cc1 [Example 354, 4-(benzo[b]thiophen-7-ylmethylamino)-6-(4-((3,3-dimethylureido)methyl)phenylamino)nicotinamide]	0.1 to 1	0.01 to 0.1	0.001 to 0.01
CC(=O)Nc1ccc(Nc2cc(NCc3cncc(F)c3)c(C(N)=O)cn2)cc1 [Example 484, 6-(4-acetamidophenylamino)-4-((5-fluoropyridin-3-yl)methylamino)nicotinamide]	0.1 to 1	0.1 to 1	0.001 to 0.01

The next lines start with the values.

IC50 [1] [µM]	IC50 [2] [µM]	IC50 [3] [µM]	Compound
0.1 to 1	0.1 to 1	0.01 to 0.1	CC(C)[C@H](C)Nc1cc(Nc2ccc(C3CCOCC3)cc2)ncc1C(N)=O [Example 186, (S)-4-(3-methylbutan-2-ylamino)-6-(4-(tetrahydro-2H-pyran-4-yl)phenylamino)nicotinamide]
> 1	> 1	> 1	CCC(=O)N1CCC(CNc2cc(Nc3ccc(C4CCOCC4)cc3)ncc2C(N)=O)CC1 [Example 161]
> 1	> 1	0.1 to 1	CN(C)CC(C)(C)CNc1cc(Nc2ccc(C3CCOCC3)cc2)ncc1C(N)=O [Example 171, 4-(3-(dimethylamino)-2,2-dimethylpropylamino)-6-(4-(tetrahydro-2H-pyran-4-yl)phenylamino)nicotinamide]
> 1	> 1	0.1 to 1	COc1ccc(Nc2cc(NC[C@@H]3CCCN(C(=O)N(C)C)C3)c(C(N)=O)cn2)cc1 [Example 53, (S)-4-((1-(dimethylcarbamoyl)piperidin-3-yl)methylamino)-6-(4-methoxyphenylamino)nicotinamide]
> 1	> 1	0.1 to 1	C[C@H](Nc1cc(Nc2ccc(C3CCOCC3)cc2)ncc1C(N)=O)C(C)(C)C [Example 167, (S)-4-(3,3-dimethylbutan-2-ylamino)-6-(4-(tetrahydro-2H-pyran-4-yl)phenylamino)nicotinamide]
0.1 to 1	0.1 to 1	0.01 to 0.1	NC(=O)c1cnc(Nc2ccc(C(=O)N3CCOCC3)cc2)cc1NCC1CCCC1 [Example 42, 4-(cyclopentylmethylamino)-6-(4-(morpholine-4-carbonyl)phenylamino)nicotinamide]
> 1	> 1	0.1 to 1	Cn1cc(CNc2cc(Nc3ccc(C4CCOCC4)cc3)ncc2C(N)=O)cn1 [Example 173, 4-((1-methyl-1H-pyrazol-4-yl)methylamino)-6-(4-(tetrahydro-2H-pyran-4-yl)phenylamino)nicotinamide]
> 1	> 1	0.1 to 1	CCC(=O)N1CCC(c2ccc(Nc3cc(N[C@H](C)C4CCCCC4)c(C(N)=O)cn3)cc2)CC1 [Example 191, (R)-4-(1-cyclohexylethylamino)-6-(4-(1-propionylpiperidin-4-yl)phenylamino)nicotinamide]
> 1	> 1	0.1 to 1	NC(=O)c1cnc(Nc2ccc(S(=O)(=O)N3CCC3)cc2)cc1NCC1CCCC1 [Example 49, 6-(4-(azetidin-1-ylsulfonyl)phenylamino)-4-(cyclopentylmethylamino)nicotinamide]
0.1 to 1	0.1 to 1	0.1 to 1	NC(=O)c1cnc(Nc2cccc(C3CCOCC3)c2)cc1NC1CCOCC1 [Example 151, 6-(3-(tetrahydro-2H-pyran-4-yl)phenylamino)-4-(tetrahydro-2H-pyran-4-ylamino)nicotinamide]
> 1	> 1	0.1 to 1	NC(=O)c1cnc(Nc2ccc(C3CCOCC3)cc2)cc1NCc1ncccn1 [Example 175, 4-(pyrimidin-2-ylmethylamino)-6-(4-(tetrahydro-2H-pyran-4-yl)phenylamino)nicotinamide]
> 1	> 1	0.1 to 1	CCC(=O)N1CCC(c2ccc(Nc3cc(NCc4cnn(C)c4)c(C(N)=O)cn3)cc2)CC1 [Example 178, 4-((1-methyl-1H-pyrazol-4-yl)methylamino)-6-(4-(1-propionylpiperidin-4-yl)phenylamino)nicotinamide]
0.1 to 1	0.1 to 1	0.01 to 0.1	NC(=O)c1cnc(Nc2ccc(C(=O)N3CCC3)cc2)cc1NCC1CCCC1 [Example 48, 6-(4-(azetidine-1-carbonyl)phenylamino)-4-(cyclopentylmethylamino)nicotinamide]
